Experiments:
[1] = tested on: 20-month-old aged female C57BL/6 mice; assay: Aging-related skeletal muscle wasting in aged mice; type: in vivo, mouse
Description: RIPA buffer (#ab156034, Abcam) containing 1X protease/phosphatase inhibitor (#1861281, Thermo Fisher Scientific) was used to lyse samples. Protein content was measured by BCA Protein Assay Kit (#23225, Thermo Fisher Scientific). Samples were loaded and separated in polyacrylamide gels and then transferred to PVDF membranes (#IPVH00010, Merck Millipore, Massachusetts, USA). The membranes were incubated with 5% BSA at room temperature for one hour and then incubated with primary antibodies overnight at 4° C., and then incubated with HRP-conjugated secondary antibodies (#SA00001-1, #SA100002-1, Proteintech, Rosemont, IL, USA) for one hour at room temperature. Signals were detected by the chemiluminescent substrate (#34095, Thermo Fisher Scientific) and were acquired by the ChemiDoc MP imaging system (Bio-Rad, Hercules, CA, USA).
(§1) Serum was collected by cardiac puncture upon sacrifice.
(§2) RNAs were purified by using the TRIzol® (#15596018, Invitrogen) and chloroform method (#C7559, Sigma-Aldrich) and reversed transcribed using High-Capacity cDNA Reverse Transcription Kit (#4368814, Applied Biosystems, Foster City, CA, USA). The quantitative RT-PCR was conducted with universal probe system (Roche Life Science, Indianapolis, IN, USA) by using a QuantStudio™ 7 Flex Real-Time PCR System (Applied Biosystems) and was normalized by the expression of GAPDH.
To investigate whether GB improves healthspan, we administered GB to 20-month-old aged mice, equivalent to 70-80-year-old humans, which is more relevant to potential clinical applications than intervention starting from young adulthood (Wang, S., Lai, X., Deng, Y. & Song, Y. Correlation between mouse age and human age in anti-tumor research: Significance and method establishment. Life Sci 242, 117242, doi: 10.1016/j.lfs.2019.117242 (2020)). After GB administration for two months, we assessed the healthspan domains in terms of sarcopenia, physical activity, metabolic health, frailty index, and inflammation (FIG. 2A) according to the criteria in clinical practice (Shamliyan, T., Talley, K. M., Ramakrishnan, R. & Kane, R. L. Association of frailty with survival: a systematic literature review. Ageing Res Rev 12, 719-736, doi: 10.1016/j.arr.2012.03.001 (2013)). As expected, circulating osteocalcin levels were decreased in aged mice, while GB administration increased osteocalcin levels (FIG. 2B, p<0.0001) toward the levels of those in young mice. […] In line with muscle loss, aging led to a decreased in total protein content (FIG. 2H, p<0.0001) in skeletal muscle with upregulation of muscle atrophy markers, Fbxo32 and Trim63, at transcript (FIG. 2K, p<0.0001 and=0.0005, respectively) and protein levels. (FIG. 2L, p=0.0182 and 0.0003, respectively). […] GB reversed the infiltration of adipose-like tissues by aging (FIGS. 2D and 2G, p=0.0012). […] GB administration reversed aging-related muscle wasting (FIG. 2K).

[2] = tested on: gastrocnemius (GA) muscle; assay: Ex vivo muscle contractility and fatigability of GA muscle from treated aged mice; type: in vivo, mouse; conditions: GB 2 months
Description: For the ex vivo muscle function test, the isolated right side gastrocnemius (GA) muscle were incubated in Krebs buffer at room temperature and with 95% O2 and 5% CO2 for five minutes. GA muscle received stimuli three times under the optimal length to evaluate twitch force. Three 150 Hz continuous stimuli were given to evaluate tetanic force. Twitch force and tetanic force were normalized to the cross-section area (CSA) of GA muscle. GA muscle fatigue was measured by repeated isometric tetanic contraction every 5 seconds for a total of 60 contractions. Five minutes and ten minutes after fatigue protocol, the maximal tetanic force was measured to assess post-fatigue recovery. All of the results were recorded with the Dynamic Muscle Control system (DMC v5.4; Aurora Scientific, Inc.), and results were analyzed by the Dynamic Muscle Analysis system (DMA v3.2; Aurora Scientific, Inc.).

[3] = tested on: circulating inflammatory cytokines and chemokines; assay: Serum 40-plex cytokine/chemokine panel in aged mice; type: in vivo, mouse; conditions: of 40 detected, GB 2 months
Excerpt: as §1

p16, p19, p57, γ-H2AX = assay: Senescence markers in multiple tissues of aged mice (real-time PCR, IHC); type: in vivo, mouse
Description: as §2

healthy adult humans = conditions: short-term pharmacological studies; cited from earlier work

CC1C(=O)OC2C(O)C34C5CC(C(C)(C)C)C36C(OC(=O)C6O)OC4(C(=O)O5)C12O (stereo not shown) [GB, Ginkgolide B]
circulating osteocalcin levels ([1]; aged (20-month-old) female mice, GB 12 mg/kg daily oral 2 months vs vehicle-aged, p<0.0001): increased
skeletal muscle-to-body ratio ([1]; aged mice, GB 12 mg/kg daily oral 2 months vs vehicle-aged): significantly increased
infiltration of adipose-like tissues by aging ([1]; aged mice, GB 12 mg/kg daily oral 2 months, p=0.0012): reversed
myofiber CSA ([1]; aged mice, quadriceps, GB 12 mg/kg daily oral 2 months vs vehicle-aged, p=0.0032): significantly increased
total protein content in aged skeletal muscle ([1]; gastrocnemius, aged mice, GB 12 mg/kg daily oral 2 months, p<0.0001): increased
expression level of Trim63 (mRNA and protein) ([1]; gastrocnemius, aged mice, GB 2 months, p=0.0039 and 0.0003): significant downregulation
expression level of Fbxo32 (mRNA and protein) ([1]; gastrocnemius, aged mice, GB 2 months, p=0.0078 and 0.0182): significant downregulation
absolute tetanic force [2]: significantly enhanced
absolute twitch force [2]: significantly enhanced
time to maximum force ([2]; p=0.0003): reversed the increased time to maximum force to the youth levels
specific force (normalized to muscle mass) ([2]; p=0.1161 and 0.1935): modest increased
fatigue resistance or recovery rate ([2]; p=0.99 at five and ten minutes): did not alter
number of circulating proteins significantly altered [3]: 12
expression of histone γ-H2AX (p16, p19, p57, γ-H2AX; IHC, multiple tissues of aged mice): reduced
expression of p16, p19 and p57 (p16, p19, p57, γ-H2AX; liver, kidney, lung, spleen, heart and muscle of aged mice, except p16 in spleen and p57 in lung): significantly inhibited
tolerability of multiple administration (healthy adult humans): well tolerated
